Where two headings read alike, the source gives them in different places. No end group written: not given here.
What was measured:
MCF7 = test: Anti-cancer assay, MTT, LD50; format: cell-based; settings: MCF7 breast adenocarcinoma line, MTT, 24 hours with peptide
Description: (§1) Numbers are LD50 values (μg/mL).

H1299 = test: Anti-cancer assay, MTT, LD50; format: cell-based; settings: 24 hours with peptide, lung large cell carcinoma
Description: as §1

PC3 = test: Anti-cancer assay, MTT, LD50; format: cell-based; settings: 24 hours with peptide, prostate adenocarcinoma
Description: as §1

SW480 = test: Anti-cancer assay, MTT, LD50; format: cell-based; settings: SW480 colon adenocarcinoma line, 24 hours with peptide
Description: as §1

HeLaS3 = test: Anti-cancer assay, MTT, LD50; format: cell-based; settings: 24 hours with peptide, cervical carcinoma
Description: as §1

BMKC = test: Anti-cancer assay, MTT, LD50; format: cell-based; settings: BMKC cloned melanoma line, 24 hours with peptide
Description: as §1

[1] = tested on: yeast (Saccharomyces cerevisiae); test: Antimicrobial assay I, yeast assay in RPMI 1640; format: cell-based; settings: RPMI 1640 media
in vitro [2] = format: cell-based, human; settings: human, human red blood cells, pH 7, hemolytic assay, concentration at 50% hemolysis, 1 hour at 37° C.; read-out: LD50
WI38 = settings: MTT, 24 hours with peptide; normal fibroblast line
in vitro [3] = settings: human, WI38 normal lung fibroblast cells, 24 hours with peptide
[4] = tested on: Staphylococcus aureus ATCC 6538; test: Antimicrobial assay I, MIC by OD measurement; format: cell-based; settings: 37° C. for 24 hours, absorbance 620 nm
[5] = tested on: Pseudomonas aeruginosa ATCC 9027; test: Antimicrobial assay I, MIC by OD measurement; format: cell-based; settings: 37° C. for 24 hours, absorbance 620 nm
P. aeruginosa H774 = format: cell-based, Pseudomonas aeruginosa; settings: P. aeruginosa H744; nalidixic acid + peptide at ¼ MIC; 0.5 or less = synergy
Protocol: (§2) The synergistic effects of the inventive peptides with either chloramphenicol or nalidixic acid against efflux mutants of Pseudomonas aeruginosa were investigated. The MIC values were determined for either nalidixic acid or chloramphenicol alone as baselines. Peptides were added at their ¼ MIC concentration, and the concentration of either nalidixic acid or chloramphenicol to arrive at the MIC was determined. […] The fractional inhibitory concentration (FIC) index was used to determine synergy between peptides and antibiotics. Two-fold serial dilutions of antibiotic were tested in the presence of a constant amount of peptide, equal to one quarter of peptide MIC. The FIC index was determined as follows: FIC=0.25+MICantibiotic in combination/MICantibiotic alone. An FIC index of 0.5 or less is considered as synergy.

P. aeruginosa H374 [6] = format: cell-based, Pseudomonas aeruginosa; settings: for MIC Cm-comb.: MIC of chloramphenicol with peptide at ¼ MIC; for MIC Nal-comb.: MIC of nalidixic acid with peptide at ¼ MIC; for FIC Index: 0.5 or less = synergy
Protocol: as §2

P. aeruginosa = format: cell-based, Pseudomonas aeruginosa; settings: P. aeruginosa H744; MIC of nalidixic acid with peptide at ¼ MIC
Protocol: as §2

E. coli UB1005 = format: cell-based, Escherichia coli; settings: mean of three; 16 to 20 hours at 35° C.; in µg/mL
S. typhimurium 14028S = format: cell-based, Salmonella typhimurium; settings: mean of three; 16 to 20 hours at 35° C.; in µg/mL
P. aeruginosa H374 [7] = format: cell-based, Pseudomonas aeruginosa; settings: mean of three; 16 to 20 hours at 35° C.
[8] = tested on: human red blood cells (RBC); test: in vitro; format: cell-based; settings: hemolytic assay, concentration at 50% hemolysis, 1 hour at 37° C.
[9] = LD50 WI38, WI38 normal lung fibroblast line, MTT
[10] = chloramphenicol + peptide at ¼ MIC
[11] = nalidixic acid + peptide at ¼ MIC, FIC=0.25+MIC comb/MIC alone

| Substance | LD50 MCF7 (MCF7) | H1299 LD50 (H1299) | PC3 LD50 (PC3) | LD50 SW480 (SW480) | HeLaS3 LD50 (HeLaS3) | LD50 BMKC (BMKC) | yeast (MIC or MFC) [1] | HC50 at 1 h (in vitro [2]) | WI38 LD50 (WI38) | CC50 at 24 h (in vitro [3]; [9]) | staph6538 (MIC) [4] | paerug9027 (MIC) [5] | FIC Index (P. aeruginosa H774) | MIC Cm-comb. (P. aeruginosa H374 [6]) | MIC Nal-comb. (P. aeruginosa H374 [6]) | FIC Index (P. aeruginosa H374 [6]; [10]) | FIC Index (P. aeruginosa H374 [6]; [11]) | MIC Nal-comb. (P. aeruginosa) | other results |
| --- | --- | --- | --- | --- | --- | --- | --- | --- | --- | --- | --- | --- | --- | --- | --- | --- | --- | --- | --- |
| FAKKLAKKLAKLAL-NH2 [P45, FAKKLAKKLAKLAL-NH2] | 260 µg/mL | 330 µg/mL | 170 µg/mL | 180 µg/mL | 160 µg/mL | 160 µg/mL | 100 µg/mL | 700 µg/mL | 200 µg/mL | 200 µg/mL | 5 µg/mL | 100 µg/mL | 1.25 | 16 µg/mL | 2500 µg/mL | 1.25 | 0.75 | 624 µg/mL |  |
| FAKKLAKKLKKLAKKLAK-OH [P71] | 190 µg/mL | 320 µg/mL | 270 µg/mL | 250 µg/mL | 570 µg/mL | 445 µg/mL | 200 µg/mL |  | 355 µg/mL | 355 µg/mL | 15 µg/mL | 15 µg/mL | 1.25 | 8 µg/mL | 2500 µg/mL | 0.75 | 0.75 | 624 µg/mL | E. coli UB1005 MIC (E. coli UB1005): 2; S. typhimurium 14028S MIC (S. typhimurium 14028S): 8; P. aeruginosa H374 MIC (P. aeruginosa H374 [7]): 4 µg/mL |
| FAKKLAKKLKKLAKKLAKLAKKL-NH2 [P307, reference compound] | 38 µg/mL | 160 µg/mL | 66 µg/mL | 73 µg/mL | 100 µg/mL | 83 µg/mL |  |  | 75 µg/mL | 75 µg/mL |  |  | 0.5 | 2 µg/mL | 625 µg/mL | 0.375 | 0.375 | 156 µg/mL | LD50 [8]: > (> indicates greater than 1000) |
| FAKLLAKALKKFL-NH2 [P118] | 70 µg/mL | 74 µg/mL | 330 µg/mL | 115 µg/mL | 87 µg/mL | 135 µg/mL | 100 µg/mL | 700 µg/mL | 170 µg/mL | 170 µg/mL | 10 µg/mL | 100 µg/mL | 1.25 | 16 µg/mL | 2500 µg/mL | 1.25 | 0.75 | 624 µg/mL |  |
| FAKLLAKALKKL-NH2 [P103] | 46 µg/mL | 150 µg/mL | 330 µg/mL | 90 µg/mL | 70 µg/mL | 75 µg/mL | 100 µg/mL | 650 µg/mL | 26 µg/mL | 26 µg/mL | 10 µg/mL | 25 µg/mL | 1.25 | 8 µg/mL | 625 µg/mL | 0.75 | 0.375 | 624 µg/mL |  |
| FAKLLAKALKLKL-NH2 [P101] | 250 µg/mL | 340 µg/mL | 730 µg/mL | 170 µg/mL | 170 µg/mL | 160 µg/mL | 100 µg/mL | 550 µg/mL | 300 µg/mL | 300 µg/mL | 10 µg/mL | 25 µg/mL | 1.25 | 16 µg/mL | 5000 µg/mL | 1.25 | 1.25 | 624 µg/mL |  |
| FAKLLAKLAKLKL-NH2 [P66] | 90 µg/mL | 130 µg/mL | 170 µg/mL | 145 µg/mL | 140 µg/mL | 200 µg/mL | 100 µg/mL | 600 µg/mL | 240 µg/mL | 240 µg/mL | 5 µg/mL | 50 µg/mL | 1.25 | 16 µg/mL | 5000 µg/mL | 1.25 | 1.25 | 624 µg/mL |  |
| FALALKALKKLKKALKKAL-NH2 [P27] | 14 µg/mL |  |  | 26 µg/mL |  | 44 µg/mL | 25 µg/mL | 125 µg/mL |  | 37 µg/mL | 10 µg/mL | 10 µg/mL | 1.25 |  |  | 0.75 | 0.25 |  | CC50 at 24 h (in vitro [3]; WI38 LD50, MTT, normal fibroblast line): 520 µg/mL |
| GIGKFLHAAKKFAKAFVAEIMNS-NH2 [P300, reference compound] | 22 µg/mL | 60 µg/mL | 45 µg/mL | 60 µg/mL | 125 µg/mL | 130 µg/mL |  | 250 µg/mL | 52 µg/mL | 52 µg/mL |  |  |  | 16 µg/mL | 312 µg/mL |  |  | 156 µg/mL |  |
| KLALKLALKALKAAKLA-NH2 [P150] | 160 µg/mL | 185 µg/mL | 74 µg/mL | 235 µg/mL | 320 µg/mL | 190 µg/mL | > (> indicates greater than 200 μg/mL) | 650 µg/mL | 125 µg/mL | 125 µg/mL | 100 µg/mL | 10 µg/mL | 0.75 | 8 µg/mL | 1250 µg/mL | 0.75 | 0.5 | 312 µg/mL |  |
| KTKLFKKFAKKLAKKLKKLAKKL-OH [P80] | 29 µg/mL | 64 µg/mL | 28 µg/mL | 35 µg/mL | 97 µg/mL | 76 µg/mL | 100 µg/mL | 900 µg/mL | 28 µg/mL | 28 µg/mL | 10 µg/mL | 100 µg/mL | 1.25 | 4 µg/mL | 2500 µg/mL | 0.5 | 0.75 | 624 µg/mL |  |
